# Experimental data from patent US10813356B2, “Herbicidal composition comprising cinmethylin and dimethenamid” (BASF Agro B.V., priority 2015, dated 2020).
# What was measured:
# Details in all cases: 20 DAT
# SORHA = assay: Greenhouse preemergence herbicidal activity; format: in vivo, Sorghum halepense
# Procedure: (§1) The test plants have been seeded, separately for each species, in plastic containers in sandy loamy soil containing 5% of organic matter.
# (§2) The containers were irrigated gently to promote germination and growth and subsequently covered with transparent plastic hoods until the plants had rooted.
# (§3) The plants have been cultivated due to their individual requirements at 10-25° C. and 20-35° C.
# (§4) The plants were irrigated due to their necessity.
# (§5) The racemic mixture (±)-2-exo-(2-Methylbenzyloxy)-1-methyl-4-isopropyl-7-oxabicyclo[2.2.1]heptane was used as herbicide A and formulated as emulsifiable concentrates with an active ingredient concentration of 50 g/l, 100 g/l or 750 g/l respectively.
# (§6) Dimethenamid-P was used as emulsifiable concentrate (EC) formulation having an active ingredient concentration of 720 g/l.
# (§7) In the following experiments, the herbicidal activity for the individual herbicidal compositions (solo and mixture applications) was assessed 20 days after treatment (DAT).
# (§8) The evaluation for the damage on undesired weeds caused by the chemical compositions was carried out using a scale from 0 to 100%, compared to the untreated control plants. Here, 0 means no damage and 100 means complete destruction of the plants.
# (§9) E=X+Y−(X·Y/100) where X=effect in percent using herbicide A at an application rate a; • Y=effect in percent using herbicide B at application rate b; • E=expected effect (in %) of herbicide A+herbicide B at application rates a+b.
# (§10) The value E corresponds to the effect (plant damage or injury) which is to be expected if the activity of the individual compounds is additive. If the observed effect is higher than the value E calculated according to the Colby equation, a synergistic effect is present.
# ANTAR [1] = assay: Greenhouse postemergence herbicidal activity; format: in vivo, Anthemis arvensis
# Procedure: as §1
# (§11) For the post emergence treatment, the plants were first grown to the 2 leaf station (GS 12). Here, the herbicidal compositions were suspended or emulsified in water as distribution medium and sprayed using finely distributing nozzles.
# as §3, §4, §5, §6, §7, §8, §9, §10
# ABUTH = assay: Greenhouse preemergence herbicidal activity; format: in vivo, Abutilon theophrasti
# Procedure: as §1, §2, §3, §4, §5, §6, §7, §8, §9, §10
# AMBEL = assay: Greenhouse preemergence herbicidal activity; format: in vivo, Ambrosia elatior
# Procedure: as §1, §2, §3, §4, §5, §6
# (§12) In the following experiments, the herbicidal activity for the individual herbicidal compositions (solo and mixture applications) was assessed 20 days after treatment (DAT). […]
# as §10
# HELAN = assay: Greenhouse preemergence herbicidal activity; format: in vivo, Helianthus annuus
# Procedure: as §1, §2, §3, §4, §5, §6, §12, §10
# GALAP = assay: Greenhouse preemergence herbicidal activity; format: in vivo, Galium aparine
# Procedure: as §1, §2, §3, §4, §5, §6, §7, §8, §9, §10
# ALOMY = assay: Greenhouse preemergence herbicidal activity; format: in vivo, Alopecurus myosuroides
# Procedure: as §1, §2, §3, §4, §5, §6, §12, §10
# AVEFA = assay: Greenhouse preemergence herbicidal activity; format: in vivo, Avena fatua
# Procedure: as §1, §2, §3, §4, §5, §6, §7, §8, §9, §10
# SSYOF = assay: Greenhouse preemergence herbicidal activity; format: in vivo, Sisymbrium officinale
# Procedure: as §1, §2, §3, §4, §5, §6, §7, §8, §9, §10
# POLCO = assay: Greenhouse preemergence herbicidal activity; format: in vivo, Polygonum convolvulus
# Procedure: as §1, §2, §3, §4, §5, §6, §7, §8, §9, §10
# BRSNW = assay: Greenhouse postemergence herbicidal activity; format: in vivo, Brassica napus
# Procedure: as §1, §11, §3, §4, §5, §6, §12, §10
# ANTAR [2] = assay: Greenhouse preemergence herbicidal activity; format: in vivo, Anthemis arvensis
# Procedure: as §1, §2, §3, §4, §5, §6, §7, §8, §9, §10
# THLAR = assay: Greenhouse preemergence herbicidal activity; format: in vivo, Thlaspi arvense
# Procedure: as §1, §2, §3, §4, §5, §6, §7, §8, §9, §10
# [3] = solo Dimethenamid-P 37.5 g ai/ha
# [4] = solo Dimethenamid-P 150 g ai/ha
# [5] = solo Dimethenamid-P 300 g ai/ha
# [6] = solo Dimethenamid-P 125 g ai/ha
# [7] = solo Dimethenamid-P 250 g ai/ha
# [8] = solo Dimethenamid-P 500 g ai/ha
# [9] = solo Dimethenamid-P 62.5 g ai/ha
molecule,measurement,setting,value
"COC[C@H](C)N(C(=O)CCl)c1c(C)csc1C [Dimethenamid-P, (S)-2-chloro-N-(2,4-dimethyl-3-thienyl)-N-(2-methoxy-1-methylethyl)acetamide]",herbicidal activity,SORHA; [3],30%
same,herbicidal activity,SORHA; solo Dimethenamid-P 75 g ai/ha,70%
same,herbicidal activity,ANTAR [1]; [3],0%
same,herbicidal activity,ANTAR [1]; solo Dimethenamid-P 75 g ai/ha,0%
same,herbicidal activity,ANTAR [1]; [4],35%
same,herbicidal activity,ANTAR [1]; [5],45%
same,herbicidal activity,ABUTH; [6],10%
same,herbicidal activity,ABUTH; [7],25%
same,herbicidal activity,AMBEL; [6],35%
same,herbicidal activity,HELAN; [8],30%
same,herbicidal activity,GALAP; [9],20%
same,herbicidal activity,GALAP; [4],70%
same,herbicidal activity,GALAP; [7],75%
same,herbicidal activity,GALAP; [5],75%
same,herbicidal activity,GALAP; [8],80%
same,herbicidal activity,ALOMY; [9],25%
same,herbicidal activity,AVEFA; [3],0%
same,herbicidal activity,AVEFA; [9],0%
same,herbicidal activity,AVEFA; solo Dimethenamid-P 75 g ai/ha,0%
same,herbicidal activity,AVEFA; [6],25%
same,herbicidal activity,SSYOF; [9],0%
same,herbicidal activity,SSYOF; [6],70%
same,herbicidal activity,SSYOF; [7],98%
same,herbicidal activity,POLCO; [3],0%
same,herbicidal activity,POLCO; [9],0%
same,herbicidal activity,POLCO; solo Dimethenamid-P 75 g ai/ha,0%
same,herbicidal activity,POLCO; [6],0%
same,herbicidal activity,POLCO; [7],30%
same,herbicidal activity,POLCO; [8],60%
same,herbicidal activity,BRSNW; solo Dimethenamid-P 75 g ai/ha,20%
same,herbicidal activity,ANTAR [2]; [3],20%
same,herbicidal activity,ANTAR [2]; [9],75%
same,herbicidal activity,ANTAR [2]; solo Dimethenamid-P 75 g ai/ha,50%
same,herbicidal activity,ANTAR [2]; [6],95%
same,herbicidal activity,ANTAR [2]; [4],85%
same,herbicidal activity,ANTAR [2]; [7],98%
same,herbicidal activity,ANTAR [2]; [5],90%
same,herbicidal activity,THLAR; [6],40%
same,herbicidal activity,THLAR; [7],70%
same,herbicidal activity,THLAR; [8],90%
(±)-2-exo-(2-Methylbenzyloxy)-1-methyl-4-isopropyl-7-oxabicyclo[2.2.1]heptane [herbicide A],herbicidal activity,SORHA; solo herbicide A 62.5 g ai/ha,80%
same,herbicidal activity,SORHA; solo herbicide A 125 g ai/ha,90%
same,herbicidal activity,ANTAR [1]; solo herbicide A 62.5 g ai/ha,0%
same,herbicidal activity,ANTAR [1]; solo herbicide A 125 g ai/ha,0%
same,herbicidal activity,ANTAR [1]; solo herbicide A 250 g ai/ha,40%
same,herbicidal activity,ANTAR [1]; solo herbicide A 500 g ai/ha,65%
same,herbicidal activity,ABUTH; solo herbicide A 62.5 g ai/ha,55%
same,herbicidal activity,ABUTH; solo herbicide A 125 g ai/ha,65%
same,herbicidal activity,AMBEL; solo herbicide A 62.5 g ai/ha,0%
same,herbicidal activity,HELAN; solo herbicide A 125 g ai/ha,0%
same,herbicidal activity,GALAP; solo herbicide A 31.25 g ai/ha,0%
same,herbicidal activity,GALAP; solo herbicide A 125 g ai/ha,20%
same,herbicidal activity,GALAP; solo herbicide A 250 g ai/ha,65%
same,herbicidal activity,GALAP; solo herbicide A 500 g ai/ha,80%
same,herbicidal activity,ALOMY; solo herbicide A 31.25 g ai/ha,85%
same,herbicidal activity,AVEFA; solo herbicide A 31.25 g ai/ha,0%
same,herbicidal activity,AVEFA; solo herbicide A 125 g ai/ha,50%
same,herbicidal activity,SSYOF; solo herbicide A 31.25 g ai/ha,0%
same,herbicidal activity,SSYOF; solo herbicide A 62.5 g ai/ha,0%
same,herbicidal activity,SSYOF; solo herbicide A 125 g ai/ha,50%
same,herbicidal activity,POLCO; solo herbicide A 31.25 g ai/ha,0%
same,herbicidal activity,POLCO; solo herbicide A 62.5 g ai/ha,0%
same,herbicidal activity,POLCO; solo herbicide A 125 g ai/ha,0%
same,herbicidal activity,POLCO; solo herbicide A 250 g ai/ha,0%
same,herbicidal activity,BRSNW; solo herbicide A 125 g ai/ha,0%
same,herbicidal activity,ANTAR [2]; solo herbicide A 31.25 g ai/ha,0%
same,herbicidal activity,ANTAR [2]; solo herbicide A 250 g ai/ha,40%
same,herbicidal activity,ANTAR [2]; solo herbicide A 500 g ai/ha,65%
same,herbicidal activity,THLAR; solo herbicide A 62.5 g ai/ha,65%
same,herbicidal activity,THLAR; solo herbicide A 125 g ai/ha,75%
same,herbicidal activity,THLAR; solo herbicide A 500 g ai/ha,90%
